Here are results for two compounds from patent US9776127B2, “Reversible light driven gas absorbent solution and process” (Commonwealth Scientific and Industrial Research Organisation, priority 2013, dated 2017).

As usually defined, the pKa is the pH at which an ionisable group is half protonated. A higher pKa goes with a weaker acid or stronger base.

The data set is described as follows: pKa of photoactive compound in ground and excited state. In kind it is physicochemical. The source says: The operating range of the photoactive compound may be related to the difference in pKa between the excited and ground states of the photoactive molecule. The operating range may be ascertained by determining the pKa of the photoactive compound in its ground state (e.g. the base or relatively weak acid form) and the pKa of the compound in its excited state (e.g. the relatively strong acidic form). The difference in pKa between these two forms therefore defines the operating range of the photoactive compound. […] The requirement to select an amine for use with a photochromic molecule that results in an absorbent pH within the working range of the photochromic molecule can be illustrated by calculation. […] The pH of a mixture containing 0.5 M amine and 0.25 M MEH (ground state) as a function of absorbed CO2 and 0.5 M amine and 0.25 spiropyran (excited state) as function of absorbed CO2 was calculated using the published method Puxty, […]. Int. […]. Gas Control, 17 (2013), 215-224. The difference in pH of the absorbent at each concentration of absorbed CO2 is indicative of the ability of excitation to remove CO2 from the absorbent. […] Chem. Thermodynamics, 51 (2012), 97-102 and Fernandes, D., et al., J. Chem. Thermodynamics, 54 (2012), 183-191.

In turn, `CC1(C)C(/C=C/c2ccccc2O)=[N+](CCCS(=O)(=O)[O-])c2ccccc21` [MEH] returned a pKa (aqueous solution, ground state, aqueous solution at room temperature) of 7.8.

In the case of `O=[N+]([O-])CCc1c(O)ccc2ccccc12` [1-(2-nitroethyl)-2-naphthol], the pKa was 1.9 (excited state) and 9.7 (ground state).
